From patent US6472391B2, “Nitrogen-containing heterocyclic compounds” (Millennium Pharmaceuticals, Inc., priority 1996, dated 2002)

Row | melting point [°C] | SMILES
1 | 134 to 136 | CCCCn1c(=O)n(CCCC)c2cc3c(N4CCN(C(=O)Nc5ccc(Oc6ccccc6)cc5)CC4)ncnc3cc21 [Compound 390, 4-(1,3-Dibutyl-1,3-dihydro-2-oxo-2H-imidazo[4,5-g]quinazolin-8-yl)-N-(4-phenoxyphenyl)-1-piperazinecarboxamide]
2 | 176 to 177 | COc1cc2ncnc(N3CCN(C(=O)Nc4ccccc4F)CC3)c2cc1OC [Compound 34, 4-(6,7-Dimethoxy-4-quinazolinyl)-N-(2-fluorophenyl)-1-piperazinecarboxamide]
3 | 214 to 220 | COc1cc2ncnc(N3CCN(C(=O)Nc4cccc(F)c4)CC3)c2cc1OC [Compound 35, 4-(6,7-Dimethoxy-4-quinazolinyl)-N-(3-fluorophenyl)-1-piperazinecarboxamide]
4 | 187 to 188 | COc1cc2ncnc(N3CCN(C(=O)N(C)c4ccccc4)CC3)c2cc1OC [Compound 137, 4-(6,7-Dimethoxy-4-quinazolinyl)-N-methyl-N-phenyl-1-piperazinecarboxamide]
5 | 139 to 140 | CC(C)c1ccc(NC(=O)N2CCN(c3ncnc4ccc(F)cc34)CC2)cc1 [Compound 296, 4-(6-Fluoro-4-quinazolinyl)-N-(4-isopropylphenyl)-1-piperazinecarboxamide]
6 | 177 to 183 | COc1cc2ncnc(N3CCCN(C(=S)NCc4cccnc4)CC3)c2cc1OC.Cl.Cl
7 | 128 to 129 | Cc1ccc2ncnc(N3CCN(C(=S)NCc4cccnc4)CC3)c2c1 [Compound 295, 4-(6-Methyl-4-quinazolinyl)-N-(3-picolyl)-1-piperazinethiocarboxamide]
8 | 256 to 257 | COc1cc2ncnc(N3CCN(C(=S)Nc4ccc(C(C)=O)cc4)CC3)c2cc1OC [Compound 242, N-(4-Acetylphenyl)-4-(6,7-dimethoxy-4-quinazolinyl)-1-piperazinethiocarboxamide]
9 | 166 to 167 | COc1cc2ncnc(N3CCN(C(=O)Nc4ccc(Cl)cc4Cl)CC3)c2cc1OC [Compound 53, N-(2,4-Dichlorophenyl)-4-(6,7-dimethoxy-4-quinazolinyl)-1-piperazinecarboxamide]
10 | 169 to 171 | COc1cc2ncnc(N3CCN(C(=S)Nc4cccnc4)CC3)c2cc1OC [Compound 97, 4-(6,7-Dimethoxy-4-quinazolinyl)-N-(3-pyridyl)-1-piperazinethiocarboxamide]
11 | 99 to 100 | COc1cc2ncnc(N3CCN(C(=S)NCC(=O)c4ccccc4)CC3)c2cc1OC [Compound 445, 4-(6,7-Dimethoxy-4-quinazolinyl)-N-phenacyl-1-piperazinethiocarboxamide]
12 | 299 to 300 | Cn1c(=O)n(C)c2cc3c(N4CCN(C(=O)Nc5ccc([N+](=O)[O-])cc5)CC4)ncnc3cc21 [Compound 386, 4-(1,3-Dihydro-1,3-dimethyl-2-oxo-2H-imidazo[4,5-g]quinazolin-8-yl)-N-(4-nitrophenyl)-1-piperazinecarboxamide]
13 | 113 to 116 | COC(=O)c1scc(C)c1NC(=S)N1CCN(c2ncnc3cc(OC)c(OC)cc23)CC1 [Compound 261, 4-(6,7-Dimethoxy-4-quinazolinyl)-N-(2-methoxycarbonyl-4-methyl-3-thienyl)-1-piperazinethiocarboxamide]
14 | 201 to 204 | COc1ccc(CNC(=S)N2CCN(c3ncnc4cc(OC)c(OC)cc34)CC2)cc1 [Compound 199, 4-(6,7-Dimethoxy-4-quinazolinyl)-N-(4-methoxybenzyl)-1-piperazinethiocarboxamide]
15 | 103 to 105 | COc1cc2ncnc(N3CCN(C(=S)NC(=O)c4ccc([N+](=O)[O-])cc4)CC3)c2cc1OC [Compound 232, 4-(6,7-Dimethoxy-4-quinazolinyl)-N-(4-nitrobenzoyl)-1-piperazinethiocarboxamide]
16 | 228 to 234 | COc1cc2ncnc(N3CCN(C(=O)NS(=O)(=O)c4ccc(Cl)cc4)CC3)c2cc1OC [Compound 43, N-(4-Chlorobenzenesulfonyl)-4-(6,7-dimethoxy-4quinazolinyl)-1-piperazinecarboxamide]
17 | 174 to 175 | COc1cc2c(N3CCN(C(=S)NCc4ccccc4)CC3)ncnc2cc1OC(C)C [Compound 341, N-Benzyl-4-(7-isopropoxy-6-methoxy-4-quinazolinyl)-1-piperazinethiocarboxamide]
18 | 218 to 219 | CCCC(=O)c1ccc(NC(=S)N2CCN(c3ncnc4cc(OC)c(OC)cc34)CC2)cc1 [Compound 244, N-(4-Butyrylphenyl)-4-(6,7-dimethoxy-4-quinazolinyl)-1-piperazinethiocarboxamide]
19 | 199 to 201 | COc1cc2ncnc(N3CCN(C(=S)Nc4cccc(C)c4)CC3)c2cc1OC [Compound 145, 4-(6,7-Dimethoxy-4-quinazolinyl)-N-(3-tolyl)-1-piperazinethiocarboxamide]
20 | 98 to 100 | COc1ccc(CCNC(=S)N2CCN(c3ncnc4cc(OC)c(OC)cc34)CC2)cc1OC [Compound 206, N-[2-(3,4-Dimethoxyphenyl)ethyl]-4-(6,7-dimethoxy-4-quinazolinyl)-1-piperazinethiocarboxamide]

Row | melting point [°C] | SMILES
21 | 177 to 178 | COc1cc2ncnc(N3CCN(C(=O)NCCc4ccc(Cl)cc4)CC3)c2cc1OC [Compound 119, N-[2-(4-Chlorophenyl)ethyl]-4-(6,7-dimethoxy-4-quinazolinyl)-1-piperazinecarboxamide]
22 | 165 to 166 | COc1cc2ncnc(N3CCN(C(=S)Nc4ccc5c(c4)OCCO5)CC3)c2cc1OC [Compound 209, 4-(6,7-Dimethoxy-4-quinazolinyl)-N-(3,4-ethylenedioxyphenyl)-1-piperazinethiocarboxamide]
23 | 240 to 241 | COc1cc2ncnc(N3CCN(C(=O)Nc4ccc(C(=O)c5ccccc5)cc4)CC3)c2cc1OC [Compound 245, N-(4-Benzoylphenyl)-4-(6,7-dimethoxy-4-quinazolinyl)-1-piperazinecarboxamide]
24 | 222 to 223 | COc1cc2ncnc(N3CCN(C(=S)Nc4ccc(C(=O)c5ccccc5)cc4)CC3)c2cc1OC [Compound 88, N-(4-Benzoylphenyl)-4-(6,7-dimethoxy-4-quinazolinyl)-1-piperazinethiocarboxamide]
25 | 198 to 202 | COc1cc2ncnc(N3CCN(C(=O)Nc4ccc(F)cc4)CC3)c2cc1OC [Compound 36, 4-(6,7-Dimethoxy-4-quinazolinyl)-N-(4-fluorophenyl)-1-piperazinecarboxamide]
26 | 210 to 212 | CCOc1cc2ncnc(N3CCN(C(=O)Nc4ccc(Br)cc4)CC3)c2cc1OC [Compound 336, N-(4-Bromophenyl)-4-(7-ethoxy-6-methoxy-4-quinazolinyl)-1-piperazinecarboxamide]
27 | 221 to 224 | COc1cc2ncnc(N3CCN(C(=S)Nc4ccc(C(C)(C)C)cc4)CC3)c2cc1OC [Compound 22, N-(4-tert-Butylphenyl)-4-(6,7-dimethoxy-4-quinazolinyl)-1-piperazinethiocarboxamide]
28 | 180 to 181 | COc1cc2ncnc(N3CCN(C(=O)Nc4cccc(C(F)(F)F)c4)CC3)c2cc1OC [Compound 162, 4-(6,7-Dimethoxy-4-quinazolinyl)-N-(3-trifluoromethylphenyl)-1-piperazinecarboxamide]
29 | 220 to 222 | COc1cc2ncnc(N3CCN(C(=O)Nc4ccc(OC(C)C)cc4)CC3)c2cc1OC [Compound 202, 4-(6,7-Dimethoxy-4-quinazolinyl)-N-(4-isopropoxyphenyl)-1-piperazinecarboxamide]
30 | 194 to 195 | COc1cc2ncnc(N3CCN(C(=O)Nc4ccc([N+](=O)[O-])cc4Cl)CC3)c2cc1OC [Compound 82, N-(2-Chloro-4-nitrophenyl)-4-(6,7-dimethoxy-4-quinazolinyl)-1-piperazinecarboxamide]
31 | 189 to 190 | COc1cc2ncnc(N3CCN(C(=O)Nc4ccc(Cl)cc4C(F)(F)F)CC3)c2cc1OC [Compound 48, N-[4-Chloro-2-(trifluoromethyl)phenyl]-4-(6,7-dimethoxy-4-quinazolinyl)-1-piperazinecarboxamide]
32 | 192 to 193 | CC(C)c1ccc(NC(=O)N2CCN(c3ncnc4ccc(Cl)cc34)CC2)cc1 [Compound 300, 4-(6-Chloro-4-quinazolinyl)-N-(4-isopropylphenyl)-1-piperazinecarboxamide]
33 | 223 to 224 | COc1cc2ncnc(N3CCN(C(=O)Nc4cccc(Cl)c4)CC3)c2cc1OC [Compound 39, N-(3-Chlorophenyl)-4-(6,7-dimethoxy-4-quinazolinyl)-1-piperazinecarboxamide]
34 | 139 to 140 | COc1cc2ncnc(N3CCN(C(=O)Nc4cc(Cl)cc(Cl)c4)CC3)c2cc1OC [Compound 55, N-(3,5-Dichlorophenyl)-4-(6,7-dimethoxy-4-quinazolinyl)-1-piperazinecarboxamide]
35 | 168 to 170 | COc1cc2ncnc(N3CCN(C(=O)NCc4ccco4)CC3)c2cc1OC [Compound 256, 4-(6,7-Dimethoxy-4-quinazolinyl)-N-furfuryl-1-piperazinecarboxamide]
36 | 182 to 183 | COc1cc2ncnc(N3CCN(C(=S)NCc4ncc(C(F)(F)F)cc4Cl)CC3)c2cc1OC [Compound 276, N-(3-Chloro-5-trifluoromethyl-2-picolyl)-4-(6,7-dimethoxy-4-quinazolinyl)-1-piperazinethiocarboxamide]
37 | 247 to 252 | COc1cc2ncnc(N3CCN(C(=S)Nc4ccc(C#N)cc4)CC3)c2cc1OC [Compound 85, N-(4-Cyanophenyl)-4-(6,7-dimethoxy-4-quinazolinyl)-1-piperazinethiocarboxamide]
38 | 207 to 208 | CCc1cccc(NC(=O)N2CCN(c3ncnc4cc(OC)c(OC)cc34)CC2)c1 [Compound 148, 4-(6,7-Dimethoxy-4-quinazolinyl)-N-(3-ethylphenyl)-1-piperazinecarboxamide]
39 | 159 to 161 | O=C(Nc1ccc(Oc2ccccc2)cc1)N1CCN(c2ccnc3cc(Cl)ccc23)CC1 [Compound 115, 4-(7-Chloro-4-quinolyl)-N-(4-phenoxyphenyl)-1-piperazinecarboxamide]
